Literature values as cited in article PMC9585589 (ACS Chemical Neuroscience, 2022).

Target: human CB1
Details: CB1 agonists, Table S8; ref SI (1)-(19), one per compound; cited from earlier work

Point of comparison: `CCOc1ccc(Cc2nc3cc(N(C)S(=O)(=O)c4cccs4)ccc3n2CC2CCCCC2)nc1` [AZ-11713908], Ki 3 nM. Against it:
- CCCCC/C=C\C/C=C\C/C=C\C/C=C\CCCC(=O)NCCCl [ACEA] — 1.8-fold higher, 5.3 nM
- COC(=O)[C@@H](NC(=O)c1ccc2c(c1)c1ccccc1n2CC1CCCCC1)C(C)(C)C [MDMB-CHMCZCA] — 1.9-fold higher, 5.75 nM
- CCCCCCn1cc(C(=O)c2cccc3ccccc23)cc1-c1ccccc1 [JWH-147] — 3.7-fold higher, 11 nM
- CCCCCn1cc(C(=O)c2cccc3ccccc23)c2ccccc21 [JWH-018] — 3-fold higher, 9 nM
- CCCCCCC(C)(C)c1cc(O)c2c(c1)OC(C)(C)[C@@H]1CC=C(C(=O)O)C[C@@H]21 [Ajulemic acid] — 1.9-fold higher, 5.7 nM
- N#Cc1c(Oc2cccc(OS(=O)(=O)CCCC(F)(F)F)c2)cccc1C(F)(F)F [BAY 59-3074] — 16-fold higher, 48.3 nM
- O=C(c1ccc2c(c1)c1ccccc1n2CCCCCF)c1cccc2ccccc12 [EG-2201] — 7.5-fold higher, 22.4 nM
- O=S(=O)(CCCC(F)(F)F)Oc1cccc(Oc2cccc3c2C[C@H](CO)C3)c1 [BAY 38-7271] — within 1.5-fold, 2.91 nM
- CC1(C)C(C(=O)c2cn(CCCCCF)c3ccccc23)C1(C)C [XLR-11] — 8-fold higher, 24 nM
- CCCCC/C=C\C/C=C\C/C=C\C/C=C\CCCC(=O)NCCO [Anandamide] — 23-fold higher, 70 nM
- CCCCC/C=C\C/C=C\C/C=C\C/C=C\CCCCOC(CO)CO [Noladin ether] — 8.3-fold higher, 25 nM
- CCCCCCC(C)(C)c1ccc([C@@H]2C[C@H](O)C[C@@H]3CC[C@H](CO)C[C@H]32)c(O)c1 [CP-55,244] — 3-fold lower, 1 nM

Same assay, conditions: CB1 antagonists/inverse agonists, Table S9; ref SI (20)-(38), one per compound; cited from earlier work

Point of comparison: `CC(C)[C@H](N=C(NS(=O)(=O)c1ccc(Cl)cc1)N1C[C@H](c2ccccc2)C(c2ccc(Cl)cc2)=N1)C(N)=O` [JD-5037], Ki 0.35 nM. Against it:
- O=C(NCc1ccc(F)cc1)c1ccc(S(=O)(=O)n2cc(N3CCCCC3)c3ccccc32)cc1 [PipISB] — 4.3-fold higher, 1.5 nM
- Cc1c(C(=O)NN2CCCCC2)nn(-c2ccc(Cl)cc2Cl)c1-c1ccc(N)cc1 [CHEMBL349955] — 230-fold higher, 81.5 nM
- CCNC1(C(N)=O)CCN(c2cnc(-c3ccc(Cl)cc3)c(-c3ccc(Cl)cc3Cl)n2)CC1 [CHEMBL496293] — 2.6-fold higher, 0.91 nM
- Cc1c(C(=O)NN2CCS(=O)(=O)CC2)nn(-c2ccc(Cl)cc2Cl)c1-c1ccc(C#CCCC#N)cc1 [AM-6545] — 4.9-fold higher, 1.7 nM
- Cc1c(C(=O)NN2CCCCC2)nn(-c2ccc(Cl)cc2Cl)c1-c1ccc(C#CCCO[N+](=O)[O-])cc1 [AM-6538] — 9.7-fold higher, 3.4 nM
- CN=C(NS(=O)(=O)c1ccc(Cl)cc1)N1C[C@H](c2ccccc2)C(c2ccc(Cl)cc2)=N1 [Ibipinabant] — 22-fold higher, 7.8 nM
- CCNC1(C(N)=O)CN(c2cnc(-c3ccc(C(F)(F)F)cc3)c(-c3ccnc(Cl)c3)n2)C1 [CHEMBL498783] — 3.4-fold higher, 1.2 nM
- Cc1c(-c2cn(-c3ccccc3)cn2)nn(-c2ccccc2Cl)c1-c1ccc(Cl)cc1 [CHEMBL568221] — 11-fold higher, 3.8 nM
- C[C@H](NC(=O)C(C)(C)Oc1ccc(C(F)(F)F)cn1)[C@@H](Cc1ccc(Cl)cc1)c1cccc(C#N)c1 [Taranabant] — 2.7-fold lower, 0.13 nM
- CC(C)N1CCOc2c(nn(-c3ccccc3Cl)c2-c2ccc(Cl)cc2)C1=O [CHEMBL482741] — 3.7-fold higher, 1.3 nM
- CCNC1(C(N)=O)CCN(c2cnc(-c3ccc(OCC)cc3)c(-c3ccccc3Cl)n2)CC1 [CHEMBL495891] — 43-fold higher, 15 nM
